Common to all, as to test: 10-day Cell Titre Glo combination screen
What all share (assay type): cell-based

One test has as its system MDA-MB-134IV. Conditions: MDA-MB-134IV breast; monotherapy; read-out: mono AC50. Summed up: (§1)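 Readout: CellTiter-Glo luminescence after 10 days of exposure to compound pairs in a 6×6 concentration grid. Growth inhibition is referenced to day-zero and DMSO controls; reported values include HSA synergy scores, CI and single-agent AC50.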
For the next test, the system named is MDA-MB-157. The conditions noted are these: Homo sapiens; MDA-MB-157 breast; monotherapy; read-out: mono AC50. Summed up:
as §1

For the next test, the system named is EFM-19. Conditions: Homo sapiens; EFM-19 breast; monotherapy; read-out: mono AC50. Summed up:
as §1

A further test concerns NCI-H358. The conditions noted are these: Homo sapiens; NCI-H358 lung; monotherapy; read-out: mono AC50. Summed up: as §1
The test system of another test is NCI-H1792. The conditions noted are these: Homo sapiens; NCI-H1792 lung; monotherapy; read-out: mono AC50. Summed up: as §1
The test system of another test is SK-BR-3. The conditions noted are these: Homo sapiens; SK-BR-3 breast; monotherapy; read-out: mono AC50. Summed up: as §1
The next test concerns HCC1954. The conditions noted are these: Homo sapiens; HCC1954 breast; monotherapy; read-out: mono AC50. Summed up: as §1
The test system of another test is NCI-H2085. Conditions: NCI-H2085 lung; monotherapy; read-out: mono AC50. Summed up:
as §1

The subject of the next test is NCI-H2009. Conditions: Homo sapiens; NCI-H2009 lung; monotherapy; read-out: mono AC50. Summed up:
as §1

Each structure is given as a SMILES string. “And” between values parts separate entries of the source, which are not always exact repeats. Equal entries are not always repeated.

A word on the AC50: it is the midpoint of the concentration-response curve, whichever way the signal moves. `C[C@@H]1COCCN1c1cc(C2([S@](C)(=N)=O)CC2)nc(-c2ccnc3[nH]ccc23)n1` [AZD6738, 4-{4-[(3R)-3-Methylmorpholin-4-yl]-6-[1-((R)—S-methylsulfonimidoyl)cyclopropyl]pyrimidin-2-yl}-1H-pyrrolo[2,3-b]-pyridine]: the AC50 in the test with MDA-MB-134IV is 5780 nM; with MDA-MB-157, 732 nM; in the test on EFM-19 it was 14300 nM; in the test with NCI-H358, 2670 nM; with NCI-H1792 it was 677 nM; in the test on SK-BR-3, 542 nM. Also, the half-maximal activity concentration (AC50) in the test with HCC1954 is 2560 nM; in the test on NCI-H2085 it was 4750 nM and 5490 nM; with NCI-H2009 it was 1020 nM.
